Data reported in patent publication US20240336566A1, “CRYSTALLINE FORMS OF A COMPOUND FOR THE TARGETED DEGRADATION OF THE ANDROGEN RECEPTOR” (Arvinas Operations, Inc., priority 2023, published 2024).
Converted amounts (≈) assume the structure as drawn.

Tests used:
Format in all cases: physicochemical
[1] = Dynamic vapour sorption (DVS) with XRPD of retained solid
Method: 10-20 mg of sample was placed into a mesh vapour sorption balance pan and loaded into a DVS-1 dynamic vapour sorption balance by Surface Measurement Systems. The sample was subjected to a ramping profile from 40-90% relative humidity (RH) at 10% increments, maintaining the sample at each step until a stable weight had been achieved (dm/dt 0.004%, minimum step length 30 minutes, maximum step length 500 minutes) at 25° C. After completion of the sorption cycle, the sample was dried using the same procedure to 0% RH and then a second sorption cycle back to 40% RH. Two cycles were performed. The weight change during the sorption/desorption cycles were plotted, allowing for the hygroscopic nature of the sample to be determined. XRPD analysis was then carried out on any solid retained.

[2] = Heating experiment of Compound A free base Pattern 1 (1H NMR after heating to 250° C.); details: heated to 250° C. using the TG/DSC
[3] = Thermodynamic solubility determination in buffers (HPLC)
Excerpt: No clear solubility advantage of the salts was noted over Compound A free base.

[4] = 7-day stability assessment (appearance, HPLC, XRPD)
Method: The material was gently ground to release any agglomerates and loaded onto a multi-well plate with Kapton or Mylar polymer film to support the sample. […] Data were visualized and images generated using the HighScore Plus 4.7 desktop application (PANalytical, 2θ17).
They all remained white or off-white solids. • XRPD analysis determined the patterns were retained.

[5] = Competitive slurry experiments of free base Patterns 1, 2 and 6 (XRPD); details: slurries of Patterns 1, 2 and 6; ambient or 40° C.
Method: XRPD analysis of the second set of competitive slurry experiments was carried out on a Philips X'Pert Pro Multipurpose diffractometer equipped with a spinning stage autosampler. The samples were scanned between 5 and 34.997 °2θ using Cu K radiation (α1γ=1.54060 Å; α2=1.54443 Å; β=1.39225 Å; α1:α2 ratio=0.5) running in Bragg-Brentano geometry (step size 0.008 °2θ, step time 10.160 s, rotation period 2 s) using 40 kV/40 mA generator settings. Data were visualized and images generated using the HighScore Plus 4.7 desktop application (PANalytical, 2θ17).
• Eight samples were prepared containing 10 mg of free base Patterns 1, 2, and 6. • The appropriate solvent systems were added and observations were noted. • After shaking at either ambient or 40° C., observations were noted and the samples were filtered centrifugally. The solids obtained were analyzed by XRPD.
• Due to inconclusive results, the solids were returned to the sample vials and 100 μL of the appropriate solvent was added to each sample. The samples were then capped and sealed by parafilm and shaken at ambient or 40° C. as before. • After shaking for 72 hours, the solids were analyzed by XRPD. […]

[6] = Buffer pH 1.2, 25° C., cf concentration of free base, listed as Compound A Free Base Pattern 1
[7] = Buffer pH 3.0, 25° C., LOQ 0.00025 mg/mL
[8] = buffer, 25 °C, pH 4, aqueous buffer, thermodynamic from solid, Buffer pH 4.0, LOQ 0.00025 mg/mL
[9] = 7 days at 40° C./75% RH (open vial)
[10] = 7 days at Ambient light (closed vial)

## COc1cc(O[C@H]2C(C)(C)[C@H](NC(=O)c3ccc(N4CCC(CN5CCN(c6ccc(C(=O)N[C@H]7CCC(=O)NC7=O)c(F)c6)CC5)CC4)cc3)C2(C)C)ccc1C#N [free base Pattern 1]
[1]
  DVS hygroscopicity: Slightly hygroscopic
  Form change after DVS: No
  form by XRPD post DVS: no form change
[1]; 25° C.
  hygroscopic nature (DVS): slightly hygroscopic
[1]; RH not stated at the place
  mass uptake of water (DVS): 1.17 wt. %
  mass uptake of water (DVS), equivalents: 0.53 eq.
[1]; at 90% RH
  DVS water uptake: 1.17 wt. %
  DVS water uptake (equivalents of water): 0.53 eq.
[2]
  degradation after heating (1H NMR): had not degraded
[3]; [6]
  0 Hr Solubility: 0.1 µg/mL
  4 Hr Solubility: 26.2 µg/mL
  24 Hr Solubility: 69.3 µg/mL
[3]; [7]
  0 Hr Solubility: <0.25 µg/mL
  4 Hr Solubility: <0.25 µg/mL
  24 Hr Solubility: <0.25 µg/mL
[3]; [8]
  solubility at 0 h: < 0.25 µg/mL
  solubility at 4 h: < 0.25 µg/mL
  solubility at 24 h: < 0.25 µg/mL
[3]; pH 1.2, after 24 hours, 25° C., as concentration of Compound A free base
  thermodynamic solubility: 69.3 µg/mL (≈ 85.8 µM)
[4]; [9]
  HPLC purity: 99.00 % relative area
  XRPD after stability storage: No change
[4]; 7 days at 40° C./75% RH (open vial), listed as Free base Pattern 1
  HPLC purity: 99.00 % relative area
[4]; 7 days at 80° C. (closed vial)
  HPLC purity: 99.03 % relative area
  XRPD after stability storage: No change
[4]; 7 days at 80° C. (closed vial), listed as Free base Pattern 1
  HPLC purity: 99.03 % relative area
[4]; [10]
  HPLC purity: 99.07 % relative area
  XRPD after stability storage: No change
[4]; 7 days at Ambient light (closed vial), listed as Free base Pattern 1
  HPLC purity: 99.07 % relative area
[4]; after 7 days at 40° C./75% RH
  Total impurities (HPLC): 1.00 Rel. Area %
[4]; after 7 days at 40° C./75% RH (open vial), 80° C. (closed vial), ambient light (closed vial)
  purity retained after stability storage (HPLC): > 99 % relative area
[4]; after 7 days at 80° C.
  Total impurities (HPLC): 0.97 Rel. Area %
[4]; after 7 days at ambient
  Total impurities (HPLC): 0.93 Rel. Area %
[4]; before stability testing
  Total impurities (HPLC): 0.99 Rel. Area %
[4]; before stability testing (condition N/A)
  HPLC purity: 99.01 % relative area
[4]; before stability testing (condition N/A), listed as Free base Pattern 1
  HPLC purity: 99.01 % relative area
[5]
  relative stability of forms (competitive slurry): thermodynamic form
